According to article PMC11322525, “Dihydrolipoamide dehydrogenase (DLD) is a novel molecular target of bortezomib” (Cell Death & Disease, 2024):

Experiments:
[1] = target: T1, DLD (dihydrolipoamide dehydrogenase) (Homo sapiens, UniProt P09622); assay: microscale thermophoresis; type: binding; conditions: unmodified bortezomib; His-tag RED-tris-NTA labelled protein; unit not given
T1 construct: recombinant, customized by DetaiBio; His-tag labelling (RED-tris-NTA) for MST implies His tag
T1 sequence (P09622 36-509): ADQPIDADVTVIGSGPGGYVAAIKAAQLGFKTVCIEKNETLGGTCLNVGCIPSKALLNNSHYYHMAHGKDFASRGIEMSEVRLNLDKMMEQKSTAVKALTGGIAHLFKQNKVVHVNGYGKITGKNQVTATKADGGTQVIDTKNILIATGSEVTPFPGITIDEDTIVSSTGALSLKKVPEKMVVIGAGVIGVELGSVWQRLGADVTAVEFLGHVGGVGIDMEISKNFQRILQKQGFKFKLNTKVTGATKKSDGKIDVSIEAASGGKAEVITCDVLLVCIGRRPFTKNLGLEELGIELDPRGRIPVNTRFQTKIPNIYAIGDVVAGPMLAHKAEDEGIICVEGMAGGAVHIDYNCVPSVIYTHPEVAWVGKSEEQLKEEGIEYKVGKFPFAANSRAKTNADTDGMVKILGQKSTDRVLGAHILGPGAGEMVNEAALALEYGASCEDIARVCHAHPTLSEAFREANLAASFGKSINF

[2] = target: T2, PSMB5 (Homo sapiens, UniProt P28074); assay: microscale thermophoresis; type: binding; conditions: unmodified bortezomib; positive control (protein of the control panel not named in the legend); isolated recombinant subunit
T2 construct: recombinant isolated subunit, customized by DetaiBio; His-tag labelling for MST implies His tag
T2 sequence (P28074 60-263): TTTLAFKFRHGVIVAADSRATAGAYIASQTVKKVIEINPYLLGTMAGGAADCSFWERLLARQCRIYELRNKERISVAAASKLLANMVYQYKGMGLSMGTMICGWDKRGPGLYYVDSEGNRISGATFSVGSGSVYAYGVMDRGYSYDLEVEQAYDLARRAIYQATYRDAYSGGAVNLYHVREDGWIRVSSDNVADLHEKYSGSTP

KD [1]: 1.38 ± 0.51 E-7
SMILES: CC(C)C[C@H](NC(=O)[C@H](Cc1ccccc1)NC(=O)c1cnccn1)B(O)O [bortezomib]
KD [2]: binding affinity of BTZ to DLD and to PSMB5
